# Assay results reported in PMC3218054, “Characterisation of the Interaction of the C-Terminus of the Dopamine D2 Receptor with Neuronal Calcium Sensor-1” (PLoS ONE, 2011).
# Read-outs that look alike come from different tables or passages of the source. Ends that are not written are not given here.
# Legend:
# NCS-1 [1] = experiment: Peptide binding to NCS-1, preliminary data (technique not stated)
# NCS-1 [2] = molecular target: T1, NCS-1 (Rattus norvegicus, UniProt P62168); experiment: Intrinsic tryptophan fluorescence titration of peptide binding to wild type NCS-1
# T1 construct: His tag (TEV-cleavable, pET-M11) (N, cleaved yes); made in house; host or cells: E. coli BL21 (DE3)
# Protocol: (§1) An expression construct of Rattus norvegicus NCS-1 [6] was sub-cloned from a pGEX-6p plasmid expressing NCS-1 [36] into pET-M11 vector. The primers were designed based on the cDNA sequence obtained from GenBank accession no. L27421 with Nco-1 and Kpn-1 as restriction digest sites. The sense and antisense strands were 5′[…] 3′ and 5′[…] CTA TAC CAG CCC GTC GTA 3 ′ respectively. Polymerase chain reaction was carried out using KOD Hot Start DNA Polymerase from Novagen. Confirmation of the insert was obtained through DNA sequencing. The R102Q mutation was generated by site-directed mutagenesis.
# NCS-1 plasmid was transformed into E.coli strain BL21 (DE3) (Novagen). Protein expression in Luria Broth (LB) and 2M9 minimal media performed by growing the cells to mid log (0.6–0.7 OD A^o600) at 30 °C; after induction with 1 mM IPTG the culture was left to grow overnight at 18 °C. ^15N NCS-1 and doubly labelled ^13C^15N proteins were expressed using 2M9 media containing ^15NH4Cl only or ^13C glucose and ^15NH4Cl as the carbon and nitrogen source. 1 ml of the starter culture was grown in LB overnight, centrifuged, and the pellet added to a 50 ml labelled media and left to grow overnight in 50 ml labelled culture. The overnight culture was used to inoculate the labelled growth medium so that the starting optical density was less than 0.1 A-600 and protein expressed as described above. […]
# (§2) To monitor intrinsic tryptophan fluorescence of NCS-1 proteins, [37], purified recombinant NCS-1 at a concentration of 1 µM in a calcium free buffer (20 mM HEPES, 139 mM NaCl, 2 mM ATP, 5 mM EGTA, 5 mM nitrolotriacetic acid, pH 7.4) were excited at room temperature with 280 nm light, and their emission spectra from 290–410 nm were measured, using a Jasco FP-6300 spectrofluorometer (Tokyo, Japan). The concentration of free calcium was increased by addition of CaCl2 to give a calculated free Ca^2+ concentration of 1 µM and an additional emission spectrum were measured. The D2 peptide was then added to give incremental increase in peptide concentration with emission spectra measured after each addition. The data for the measured fluorescence change at each peptide concentration were fitted to a logistic fit using non-linear curve fitting in OriginPro (Microcal).
# Figure 2 Binding of the dopamine D2 receptor C-terminus to NCS-1 monitored using tryptophan fluorescence. (A) The spectra represent intrinsic tryptophan fluorescence of NCS-1 before and after addition 1 µM Ca^2+ and after subsequent addition of the D2SR peptide. (B) Extent of the changes in tryptophan fluorescence following sequential additions of D2SR peptide to the final concentrations indicated. […]
# NCS-1 [3] = molecular target: T1, NCS-1; experiment: NMR titration / chemical shift mapping of peptide binding to NCS-1
# Protocol: as §1
# NCS-1 plasmid was transformed into E.coli strain BL21 (DE3) (Novagen). Protein expression in Luria Broth (LB) and 2M9 minimal media performed by growing the cells to mid log (0.6–0.7 OD A^o600) at 30 °C; after induction with 1 mM IPTG the culture was left to grow overnight at 18 °C. ^15N NCS-1 and doubly labelled ^13C^15N proteins were expressed using 2M9 media containing ^15NH4Cl only or ^13C glucose and ^15NH4Cl as the carbon and nitrogen source. 1 ml of the starter culture was grown in LB overnight, centrifuged, and the pellet added to a 50 ml labelled media and left to grow overnight in 50 ml labelled culture. The overnight culture was used to inoculate the labelled growth medium so that the starting optical density was less than 0.1 A-600 and protein expressed as described above. Cells were harvested and resuspended into the lysis buffer (50 mM TrisHCl, 200 mM NaCl 5 mMCaCl2 pH 7.5 plus a tablet per litre of culture of Complete EDTA Free Protease inhibitor (Roche Applied Science).
# NCS-1 was prepared in Tris buffer pH 6.8 in the presence of 5 mM MgCl2 and 5 mM CaCl2. Unless otherwise state, NMR spectra were recorded at 27 °C on Bruker DRX 800 and 600 MHz spectrometers equipped with CryoProbes. Data were processed using the Bruker Software TopSpin and analysed using CCPN software. Sequence-specific backbone and side-chain resonance assignment of NCS-1 was transferred from the previously reported assignments on unmyristoylated Ca^2+ loaded NCS-1 (Biological Magnetic Resonance Data Bank accession number 4378); however, due to differences in sample conditions and temperature, many resonances were re-assigned during the course of these studies using HNCA, HN(CO)CA, HNCO, HN(CA)CO, CBCA(CO)NH, CBCANH, HBHA(CO)NH and HCCH-TOCSY experiments. In addition, the resonance assignment for the aromatic side-chain had been incomplete. The aromatic side-chains were partially assigned using 2D [^1H, ^13C] -TROSY, and homonuclear TOCSY and NOESY spectra recorded in D2O.
# (§3) Two peptides D2 and D2SR were used for the NMR studies. […] The peptides were first dissolved in minimal amounts of DMSO (approximately 1–2 µl) before adding the protein solution to achieve the appropriate peptide to protein ratio.
# The minimum chemical-shift differences between free and D2-bound NCS-1 were expressed as: Δδ = √ {(ΔH/0.03)^2 + (ΔN/0.03)^2}. Values of Δδ greater than 0.07 were considered significant.
# Figure 3 Interactions between NCS-1 and D2 Peptide monitored using NMR spectroscopy. (A) ^1H^15N HSQC spectra of ^15N,^13C NCS-1 (1 mM) in 50 mM Tris buffer, 50 mM NaCl, 5 mM CaCl2, pH 6.5, 300 K on Avance Bruker 800 MHz spectrometer in the absence (black) or in the presence of D2SR at a final concentration of 5 mM (red). (B) Sections of ^1H^15N HSQC spectra of ^15N,^13C NCS-1 showing the progression of peaks throughout the peptide titration (from black to red). Shown are the various characteristics of resonance perturbation ranging from complete line-broadening to gradual change in chemical shifts or a mixture of shifts and line-broadening. (C) ^1H^13C HSQC spectra of ^15N,^13C NCS-1 (1 mM) (black) in the presence of D2SR (final concentration of 5 mM) (red) indicating some of the resolved methyl groups with most significant shift changes.
# NCS-1 [4] = details: receptor residues 428–435; cited from earlier work
# Source text: This seems surprising as these are the cytoplasmic residues in closest proximity to the transmembrane domain of the receptor and that in the structure of the dopamine D3 receptor (PDB accession 3PBL), the first two amino acids TF form part of penultimate helix VII of the receptor, rather than the C-terminus helix VIII.
# [5] = Solubility of peptides in aqueous buffer; format: physicochemical
# Source text: The peptide (hereafter referred to as D2 peptide) used here corresponds to residues 428–443 of the human D2 receptor. The synthetic D2 peptide ([…]) and its modified form D2SR ([…]), were purchased from Peptide Protein Research Ltd., Fareham, PO15 6DP, UK. The shorter form, corresponding to residues 428–435 ([…]) were, purchased from GenicBio, China. The peptides was delivered >95% pure. […] Therefore, in all the experiments, peptide samples were first dissolved in a minimal amount of DMSO and then diluted with the relevant buffer. If necessary, pH values of the samples were re-adjusted to the desired value.
# as §3
# R102Q NCS-1 = molecular target: T2, R102Q NCS-1 (Rattus norvegicus, UniProt P62168, R102Q); experiment: Intrinsic tryptophan fluorescence titration of peptide binding to R102Q NCS-1
# T2 construct: His tag (TEV-cleavable, pET-M11) (N, cleaved yes); made in house; host or cells: E. coli BL21 (DE3)
# Protocol: as §1, §2
# Figure 6 Significant line-broadening in the C-terminal region of NCS-1 and effect of the R102Q mutation on peptide binding. […] (B) Extent of the changes in tryptophan fluorescence following sequential additions of D2SR peptide to the final concentrations indicated in the presence of 1 µM Ca^2+. […] (C) Curve fitting of data from separate tryptophan fluorescence experiments enables determination of the concentration of D2SR peptide required for half-maximal binding and the Hill coefficient for wild type and R102Q NCS-1. […]
# [6] = up to a 10-fold excess of peptide
# T1 sequence (P62168 whole entry): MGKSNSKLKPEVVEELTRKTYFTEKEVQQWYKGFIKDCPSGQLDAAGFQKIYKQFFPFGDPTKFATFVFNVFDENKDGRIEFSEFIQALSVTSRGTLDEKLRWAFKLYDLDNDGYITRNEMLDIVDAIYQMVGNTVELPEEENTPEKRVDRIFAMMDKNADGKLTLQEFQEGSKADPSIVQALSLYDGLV
# T2 sequence (P62168 whole entry R102Q): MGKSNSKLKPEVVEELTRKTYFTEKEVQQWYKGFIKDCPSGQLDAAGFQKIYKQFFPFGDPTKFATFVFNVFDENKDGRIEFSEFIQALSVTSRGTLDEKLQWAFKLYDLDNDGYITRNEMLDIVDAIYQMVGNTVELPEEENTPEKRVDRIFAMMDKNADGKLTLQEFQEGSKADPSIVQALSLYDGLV
sequence,measurement,setting,value
NIEFRKAFLKILHS,affinity for NCS-1 relative to TFNIEFRKAFLKILHS,NCS-1 [1],able to bind NCS-1 with similar affinity to […]
"TFNIEFRK [shorter form, corresponding to residues 428–435 of the D2 receptor]","ability to bind NCS-1 (restated finding, binding assays)","NCS-1 [2]; 8-residue peptide, binding assays = fluorescence and NMR titrations",not able to bind NCS-1
same,interaction with NCS-1 by fluorescence titration,NCS-1 [2]; [6],no evidence for an interaction
same,interaction with NCS-1 by NMR titration,NCS-1 [3]; [6],no evidence for an interaction
same,binding to NCS-1 (yeast 2-hybrid),NCS-1 [4],shortest peptide that could bind NCS-1
TFNIEFRKAFLKILHC [D2 peptide],solubility in aqueous buffer,[5],rather insoluble in aqueous buffer
TFNIEFRKAFLKILHSR [D2SR],change in NCS-1 tryptophan fluorescence above that following addition of 1 µM free Ca^2+,NCS-1 [2]; 1 µM free Ca^2+,additional increase in fluorescence of a similar magnitude
same,Hill coefficient,"NCS-1 [2]; D2SR, wild type NCS-1, 1 µM free Ca^2+, logistic fit, n = 5",~1.5
same,Hill coefficient,"R102Q NCS-1; D2SR, R102Q NCS-1, 1 µM Ca^2+, logistic fit, n = 4",around 1.5
same,increase in affinity of the protein for D2SR by R102Q mutation,"R102Q NCS-1; R102Q (n = 4) versus wild type (n = 5) NCS-1, 1 µM Ca^2+, unpaired Student's t-test",2.07 fold
same,affinity of binding to R102Q versus wild type NCS-1,R102Q NCS-1; compared with wild-type NCS-1,affinity of binding was increased in the mutant
same,exchange regime of NCS-1 resonances,"NCS-1 [3]; HSQC titration, D2SR",intermediate to fast exchange regime
same,least affected NCS-1 regions,"NCS-1 [3]; HSQC titration, D2SR","helices1, 5, 8 and part of 2"
same,"most affected NCS-1 regions, mapped onto 1G8I","NCS-1 [3]; HSQC titration, D2SR",residues located either in the hydrophobic ligand-binding crevice or in the regions linking the helical regions of the EF hands
same,NCS-1 resonance perturbation (chemical shift changes/broadening),"NCS-1 [3]; ^1H-^15N and ^1H-^13C HSQC of ^15N,^13C NCS-1, 27 °C and 35 °C",At both temperatures chemical shift changes and/or broadening of specific NCS-1 resonances were observed
same,line-broadening of C-terminal residues 180–190 (helix 11) of NCS-1,"NCS-1 [3]; ^1H^15N HSQC, peptide titration, 1 mM NCS-1, 0.5 mM D2SR, pH 6.5, 300 K",line-broadening occurring at sub-stoichiometric concentrations of D2SR
same,solubility in aqueous buffer,"[5]; peptides first dissolved in DMSO, then diluted with buffer",rather insoluble in aqueous buffer
same,solubility improvement over D2 peptide,[5]; two extra amino acids intended to increase solubility,solubility improvement was only marginal
